# Like-named read-outs stand apart in the source and are kept apart here.
# Columns and labels:
# [1] = in vivo; cited from earlier work
# [2] = Clinical cases: appetite / hunger; conditions: Example 10, olanzapine 2.5 mg HS
# [3] = in vivo; cited from earlier work; remark: listed apart in the source
# [4] = bipolar II, 6 weeks, n=10; cited from earlier work
# [5] = not given; remark: listed apart in the source
# [6] = system: cytochrome p450 (CPY) system; conditions: cited from earlier work
# [7] = Parkinson's disease, 3.5-4.5 mg/day; decreased when the dose was lowered; cited from earlier work
# [8] = cited from earlier work
# D3 = D3 (Homo sapiens, UniProt P35462); conditions: cited from earlier work
# [9] = macroprolactinomas; cited from earlier work
# [10] = in vivo; cited from earlier work; remark: listed apart in the source
# [11] = Clinical cases: galactorrhea; conditions: Example 2, risperidone 2 mg per day
# [12] = Example 9, pramipexole 0.25 mg AM & HS with quetiapine
# [13] = Example 12, approximately two months on pramipexole, same as before starting
# D3, sequence (P35462 whole entry): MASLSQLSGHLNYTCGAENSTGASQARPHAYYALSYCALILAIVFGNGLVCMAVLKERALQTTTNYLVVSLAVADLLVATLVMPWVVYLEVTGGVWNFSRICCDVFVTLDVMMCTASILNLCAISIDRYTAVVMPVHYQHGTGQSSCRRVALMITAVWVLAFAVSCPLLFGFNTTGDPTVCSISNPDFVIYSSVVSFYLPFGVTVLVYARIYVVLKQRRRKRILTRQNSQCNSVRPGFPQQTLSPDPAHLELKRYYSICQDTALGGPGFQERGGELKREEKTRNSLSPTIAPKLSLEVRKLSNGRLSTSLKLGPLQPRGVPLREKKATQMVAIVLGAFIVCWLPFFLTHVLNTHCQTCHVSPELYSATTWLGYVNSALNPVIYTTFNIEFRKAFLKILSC
smiles,measurement,setting,value
CC(C)C[C@H]1C(=O)N2CCC[C@H]2[C@]2(O)O[C@](NC(=O)[C@@H]3C=C4c5cccc6[nH]c(Br)c(c56)C[C@H]4N(C)C3)(C(C)C)C(=O)N12 [bromocriptine],abdominal cramps,[1],4%
same,constipation,[1],3%
same,diarrhea,[1],3%
same,dizziness,[1],17%
same,drowsiness,[1],3%
same,fatigue,[1],7%
same,headache,[1],19%
same,incidence of adverse effects,[1],69%
same,lightheadedness,[1],5%
same,nasal congestion,[1],3%
same,nausea,[1],49%
same,patients in whom therapy was discontinued because of adverse effects,[1],approximately 5%
same,vomiting,[1],5%
Cc1cc2c(s1)Nc1ccccc1N=C2N1CCN(C)CC1 [olanzapine],appetite,[2],marked increase in appetite
C[C@]12C=CC(=O)C=C1CC[C@@H]1[C@@H]2C(=O)C[C@@]2(C)[C@H]1CC[C@]2(O)C(=O)CO [prednisone],weight after treatment,"human, in vivo",185 pounds
CCCN[C@H]1CCc2nc(N)sc2C1 [pramipexole],weight lost,"Example 1, pramipexole 0.25 mg twice per day with olanzapine 20 mg per day",11 pounds
same,weight after treatment,"Example 1, pramipexole 0.25 mg twice per day with olanzapine 20 mg per day, from 187 pounds",176 pounds
same,weight maintained at,"Example 3, olanzapine 10 mg per day with pramipexole up to 0.75 mg per day, prednisone 5 mg per day added",202 pounds
same,weight after restarting pramipexole,"Example 4, 0.25 mg twice daily, within the next two weeks",174 pounds
same,weight maintained at,"Example 4, olanzapine 5 mg per day with pramipexole 0.25 mg twice per day",168 pounds
same,weight after discontinuing pramipexole,"Example 4, within one week, on olanzapine 5 mg per day",181 pounds
same,weight after treatment,"Example 5, pramipexole increased to 0.25 mg per day, after 6 weeks",154 pounds
same,weight after discontinuing pramipexole,Example 6,250 pounds
same,weight after treatment,"Example 6, pramipexole 0.25 mg per day, from 247 pounds",244 pounds
same,weight after treatment,"Example 7, pramipexole 0.25 mg per day, later",212 pounds
same,weight after treatment,"Example 7, pramipexole increased to 0.25 mg per day, in two weeks",214 pounds
same,weight maintained at,"Example 8, olanzapine 15 mg per day with pramipexole 0.25 mg TID",259 pounds
same,weight decreased by,[12],3 pounds
same,weight maintained at,[12],157 pounds
same,weight gained,"Example 11, pramipexole 0.25 mg AM & HS for 3 weeks, with quetiapine",5 pounds
same,weight after treatment,"Example 12, pramipexole 0.25 mg twice per day",172 pounds
same,weight after treatment,"Example 13, pramipexole up to 0.25 mg twice per day, from 132 pounds",127 pounds
same,weight lost,"Example 13, pramipexole up to 0.25 mg twice per day, in three weeks",5 pounds
same,weight maintained at,"Example 14, olanzapine 10 mg per day with pramipexole 0.25 mg twice per day, several months",312 pounds
same,excreted unchanged in the urine,[3],90%
same,subjects who developed hypomanic symptoms,[4],One
same,triglycerides after pramipexole,"[5]; Example 7, pre-pramipexole 2.88 mmol/L",2.4 mmol/L
same,cholesterol after pramipexole,"[5]; Example 7, pre-pramipexole 6.6 mmol/L",5.6 mmol/L
same,cholesterol,[5]; [13],7.5 mmol/L
same,fasting blood sugar (FBS),[5]; [13],6.6 mmol/L
same,triglycerides,[5]; [13],3.6 mmol/L
same,interaction with the cytochrome p450 system,[6],does not interact
same,effect on weight,[7],caused weight gain
same,increase in anxiety,[8]; early in the dose escalation,18 of 38
same,nausea reported,"[8]; fibromyalgia, 14 week study",79%
CCCN(CCC)CCc1cccc2c1CC(=O)N2 [ropinirole],interaction with the cytochrome p450 system,[6],p450 interactions
same,D3 affinity relative to pramipexole,D3,less D3 affinity
"CCCN1CC(NS(=O)(=O)N(CC)CC)CC2Cc3c(O)cccc3CC21 (centres unmarked) [Quinagolide, quinagolide]",patients with significant weight loss,[9],11 of 12
same,half-life,[10],24 h
Cc1nc2n(c(=O)c1CCN1CCC(c3noc4cc(F)ccc34)CC1)CCCC2 [risperidone],galactorrhea,[11],developed galactorrhea
